Data taken from patent US20230405028A1 (priority 2020, published 2023).
Like-named read-outs stand apart in the source and are kept apart here.

Assays:
[1] = test system: Human primary small intestinal epithelial cells (HSIEC)
mice = settings: intraplantar injections (Bandell, 2004); cited from earlier work
rats = rats (Iwasaki, 2008); cited from earlier work
individuals [2] = experiment: Minimum effective dose (MED, MED50) and perceived effects of 5HT2A agonist with or without TRP agonists in individuals; format: in vivo, human
iNOS = iNOS in HSIEC cells treated with TNF-α/IFN-γ; format: cell-based, human; settings: 5, 10, 20, 40 μM
GABA = GABA in A-172 cells; format: cell-based; settings: escalating doses
From the text: (§1) This experiment was designed to explore the synergistic interaction of 5HT2A agonist and a TRP agonists on receptors in the brain that are associated with depression and/or inflammation. […] The development of an inflammatory microenvironment is considered important to the initiation and progression of glioblastoma; however, therapeutic approaches to target inflammation have previously been limited. The abnormal function of IL-6 and IL-8 has been predicted to lead to glioblastoma.
(§2) Thus, unlike the experiments on HSIEC cells described above, no inflammatory treatment was applied to the A-172 cells. The A-172 cells were grown to […] confluence on T-25 flasks to allow a 96-hour duration of exposure of the cells to the compounds of interest

BDNF = BDNF in A-172 cells; format: cell-based; settings: escalating doses
From the text: as §1, §2

A-172 glioblastoma cells = experiment: MTT cell viability assay in A-172 cells
individuals [3] = experiment: Surveys of participants using the formulations (music festival, wellness retreat, home use); settings: surveys and self-report
Description: Edible chew and capsule formulations including the Base 07—Complete with coffee beans, the 5HT2A agonist alone with corn starch (positive control) or sugar and placebo formulations including corn starch (negative control) or sugar alone (double negative control) were prepared and provided to small groups of individuals for assessment of the effects of the compositions.
The formulations also included additional GRAS material. […] Some studies were undertaken in the context of a music festival. Other studies were undertaken at psilocybin retreat events. Numerous individuals also self-administered the formulations in their personal space and observed their daily routines over an extended number of days of using the formulations. Exclusion criteria were applied in a questionnaire to exclude individuals with a schizophrenia diagnosis, individuals with a family history of schizophrenia, pregnant individuals, minors and other high-risk categories for using psilocybin.
Typically, between 1 and 9 dosage units were provided to each participant per day. The studies varied in duration from one day to four weeks. Heavier individuals (<75 kg) were typically given larger dosages.
On multiple occasions a standard dose of the chocolate format of the complete recipe was distributed prior to a music festival event in Jamaica. […]

SMILES: O=C/C=C/c1ccccc1 [cinnamaldehyde, (2E)-3-phenylprop-2-enal]
- Cellular Metabolic Activity ([1]; 5 μM, 24 h): 0.183
- Cellular Metabolic Activity ([1]; 5 μM, 48 h): 0.148
- Cellular Metabolic Activity ([1]; 5 μM, 72 h): 0.236
- Cellular Metabolic Activity ([1]; 5 μM, 96 h): 0.423
- Cellular Metabolic Activity ([1]; 5 μM, time 0): 0.026
- Cellular Metabolic Activity ([1]; 10 μM, 24 h): 0.166
- Cellular Metabolic Activity ([1]; 10 μM, 48 h): 0.119
- Cellular Metabolic Activity ([1]; 10 μM, 72 h): 0.160
- Cellular Metabolic Activity ([1]; 10 μM, 96 h): 0.321
- Cellular Metabolic Activity ([1]; 10 μM, time 0): 0.022
- Cellular Metabolic Activity ([1]; 20 μM, 24 h): 0.169
- Cellular Metabolic Activity ([1]; 20 μM, 48 h): 0.095
- Cellular Metabolic Activity ([1]; 20 μM, 72 h): 0.105
- Cellular Metabolic Activity ([1]; 20 μM, 96 h): 0.152
- Cellular Metabolic Activity ([1]; 20 μM, time 0): 0.025
- Cellular Metabolic Activity ([1]; 40 μM, 24 h): 0.171
- Cellular Metabolic Activity ([1]; 40 μM, 48 h): 0.049
- Cellular Metabolic Activity ([1]; 40 μM, 72 h): 0.018
- Cellular Metabolic Activity ([1]; 40 μM, 96 h): 0.015
- Cellular Metabolic Activity ([1]; 40 μM, time 0): 0.026
- Cellular Metabolic Activity ([1]; 80 μM, 24 h): 0.175
- Cellular Metabolic Activity ([1]; 80 μM, 48 h): 0.021
- Cellular Metabolic Activity ([1]; 80 μM, 72 h): 0
- Cellular Metabolic Activity ([1]; 80 μM, time 0): 0.030
- Cellular Metabolic Activity ([1]; 100 μM, 24 h): 0.171
- Cellular Metabolic Activity ([1]; 100 μM, 48 h): 0.016
- Cellular Metabolic Activity ([1]; 100 μM, time 0): 0.027
- Cellular Metabolic Activity ([1]; 200 μM, 24 h): 0.191
- Cellular Metabolic Activity ([1]; 200 μM, 48 h): 0.009
- Cellular Metabolic Activity ([1]; 200 μM, time 0): 0.031
- concentration above which inhibitory effect / significant toxicity (MTT) ([1]; human): over 10 μM
- nociceptive behavior (mice): cause nociceptive behavior
- adrenaline secretions (rats): increasing adrenaline secretions

SMILES: CN(C)CCc1c[nH]c2cccc(OP(=O)(O)O)c12 [psilocybin, 3-[2-(dimethylamino)ethyl]-4-phosphoryloxyindole, reference compound]
- reduction in the MED50 with TRP agonists added (individuals [2]; FIGS. 6 to 8): ~60%
- MED (dose for 100% of individuals to report a psychoactive effect) (individuals [2]; oral, 70 kg individual): over 0.3 g of dried fruiting bodies
- dose reducing iNOS to the greatest extent (iNOS): 10 µM
- dose resulting in the greatest increase of GABA (GABA): 5 µM
- doses resulting in the decrease of BDNF (BDNF): 20 µM
- effect on cell growth / cellular metabolic activity (MTT, words) [1]: increase growth of cells
- Cellular Metabolic Activity ([1]; 5 μM, 24 h): 0.098
- Cellular Metabolic Activity ([1]; 5 μM, 48 h): 0.186
- Cellular Metabolic Activity ([1]; 5 μM, 72 h): 0.380
- Cellular Metabolic Activity ([1]; 5 μM, 96 h): 0.621
- Cellular Metabolic Activity ([1]; 5 μM, time 0): 0.047
- Cellular Metabolic Activity ([1]; 10 μM, 24 h): 0.107
- Cellular Metabolic Activity ([1]; 10 μM, 48 h): 0.198
- Cellular Metabolic Activity ([1]; 10 μM, 72 h): 0.388
- Cellular Metabolic Activity ([1]; 10 μM, 96 h): 0.624
- Cellular Metabolic Activity ([1]; 10 μM, time 0): 0.038
- Cellular Metabolic Activity ([1]; 20 μM, 24 h): 0.150
- Cellular Metabolic Activity ([1]; 20 μM, 48 h): 0.238
- Cellular Metabolic Activity ([1]; 20 μM, 72 h): 0.415
- Cellular Metabolic Activity ([1]; 20 μM, 96 h): 0.635
- Cellular Metabolic Activity ([1]; 20 μM, time 0): 0.038
- Cellular Metabolic Activity ([1]; 40 μM, 24 h): 0.182
- Cellular Metabolic Activity ([1]; 40 μM, 48 h): 0.259
- Cellular Metabolic Activity ([1]; 40 μM, 72 h): 0.467
- Cellular Metabolic Activity ([1]; 40 μM, 96 h): 0.685
- Cellular Metabolic Activity ([1]; 40 μM, time 0): 0.041
- Cellular Metabolic Activity ([1]; 80 μM, 24 h): 0.345
- Cellular Metabolic Activity ([1]; 80 μM, 48 h): 0.371
- Cellular Metabolic Activity ([1]; 80 μM, 72 h): 0.579
- Cellular Metabolic Activity ([1]; 80 μM, 96 h): 0.805
- Cellular Metabolic Activity ([1]; 80 μM, time 0): 0.042
- Cellular Metabolic Activity ([1]; 160 μM, 24 h): 0.523
- Cellular Metabolic Activity ([1]; 160 μM, 48 h): 0.604
- Cellular Metabolic Activity ([1]; 160 μM, 72 h): 0.808
- Cellular Metabolic Activity ([1]; 160 μM, 96 h): 1.099
- Cellular Metabolic Activity ([1]; 160 μM, time 0): 0.042
- Cellular Metabolic Activity (A-172 glioblastoma cells; 5 μM, 24 h): 0.155
- Cellular Metabolic Activity (A-172 glioblastoma cells; 5 μM, 48 h): 0.253
- Cellular Metabolic Activity (A-172 glioblastoma cells; 5 μM, 72 h): 0.374
- Cellular Metabolic Activity (A-172 glioblastoma cells; 5 μM, 96 h): 0.530
- Cellular Metabolic Activity (A-172 glioblastoma cells; 5 μM, time 0): 0.090
- Cellular Metabolic Activity (A-172 glioblastoma cells; 10 μM, 24 h): 0.181
- Cellular Metabolic Activity (A-172 glioblastoma cells; 10 μM, 48 h): 0.269
- Cellular Metabolic Activity (A-172 glioblastoma cells; 10 μM, 72 h): 0.363
- Cellular Metabolic Activity (A-172 glioblastoma cells; 10 μM, 96 h): 0.577
- Cellular Metabolic Activity (A-172 glioblastoma cells; 10 μM, time 0): 0.090
- Cellular Metabolic Activity (A-172 glioblastoma cells; 20 μM, 24 h): 0.201
- Cellular Metabolic Activity (A-172 glioblastoma cells; 20 μM, 48 h): 0.303
- Cellular Metabolic Activity (A-172 glioblastoma cells; 20 μM, 72 h): 0.370
- Cellular Metabolic Activity (A-172 glioblastoma cells; 20 μM, 96 h): 0.636
- Cellular Metabolic Activity (A-172 glioblastoma cells; 20 μM, time 0): 0.082
- Cellular Metabolic Activity (A-172 glioblastoma cells; 40 μM, 24 h): 0.287
- Cellular Metabolic Activity (A-172 glioblastoma cells; 40 μM, 48 h): 0.369
- Cellular Metabolic Activity (A-172 glioblastoma cells; 40 μM, 72 h): 0.457
- Cellular Metabolic Activity (A-172 glioblastoma cells; 40 μM, 96 h): 0.703
- Cellular Metabolic Activity (A-172 glioblastoma cells; 40 μM, time 0): 0.086
- Cellular Metabolic Activity (A-172 glioblastoma cells; 80 μM, 24 h): 0.469
- Cellular Metabolic Activity (A-172 glioblastoma cells; 80 μM, 48 h): 0.528
- Cellular Metabolic Activity (A-172 glioblastoma cells; 80 μM, 72 h): 0.586
- Cellular Metabolic Activity (A-172 glioblastoma cells; 80 μM, 96 h): 0.871
- Cellular Metabolic Activity (A-172 glioblastoma cells; 80 μM, time 0): 0.084
- effect on cell growth (MTT, words) (A-172 glioblastoma cells; A-172, psilocybin 80 μM): modest increase in cell growth
- side effects / tolerance / intoxication (individuals [3]): no reports of intoxication or other psychoactive effects to a degree that influenced motor skills or coordination
